# US12122761B2, “2-azaspiro[3.4]octane derivatives as M4 agonists” (NOVARTIS AG, priority 2019, dated 2024)
# Tests used:
# [1] = target: T1, human cloned CHRM4 receptor (M4_CHO cells) (Homo sapiens, UniProt P08173); assay: CHRM4 Ca++ Flux Assay (agonist mode, FDSS 7000EX); format: cell-based; details: for M4 FDSS PA / Emax: Percent Activity; for EC50: geometric mean if tested more than once, read-out: M4 FDSS EC50; for Emax: read-out: M4 FDSS PA
# T1 construct: expressed in transfected cells; host or cells: CHO-K1
# T1 sequence (P08173 1-479): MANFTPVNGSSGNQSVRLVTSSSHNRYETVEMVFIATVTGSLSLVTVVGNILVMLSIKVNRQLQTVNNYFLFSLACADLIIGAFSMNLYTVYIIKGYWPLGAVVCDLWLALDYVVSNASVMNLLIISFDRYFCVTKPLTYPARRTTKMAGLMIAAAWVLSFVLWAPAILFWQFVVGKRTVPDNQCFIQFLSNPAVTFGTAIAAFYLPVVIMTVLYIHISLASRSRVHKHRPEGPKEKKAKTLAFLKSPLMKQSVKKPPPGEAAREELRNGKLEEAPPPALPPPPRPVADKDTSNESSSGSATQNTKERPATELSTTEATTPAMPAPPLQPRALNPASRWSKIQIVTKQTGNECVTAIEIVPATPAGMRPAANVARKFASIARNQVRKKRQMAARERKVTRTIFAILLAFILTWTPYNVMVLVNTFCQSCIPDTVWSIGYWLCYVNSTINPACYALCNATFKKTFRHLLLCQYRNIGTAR
# How it was run: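 Agonist-mode response was expressed as percent of the Carbachol EC100 and fitted with four-parameter nonlinear regression over an 11-point triplicate dose series. Intracellular Ca++ was tracked for 3 min by fluorescent dye in CHO-K1 cells stably expressing human CHRM4. Cells were preincubated 60 min with 20 μM ATP in buffer containing 2.5 mM probenecid.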
# [2] = target: T2, Cloned human M1 receptor (CHRM1) stably expressed in HEK293 cells (Homo sapiens, UniProt P11229); assay: CHRM1 Ca++ Flux Assay (agonist mode, FDSS 7000EX); format: cell-based; details: for M1 FDSS PA: Percent Activity; for EC50: geometric mean if tested more than once; for Emax: HEK293, Percent Activity, read-out: M1 FDSS PA
# T2 construct: expressed in transfected cells; host or cells: HEK293
# T2 sequence (P11229 1-460): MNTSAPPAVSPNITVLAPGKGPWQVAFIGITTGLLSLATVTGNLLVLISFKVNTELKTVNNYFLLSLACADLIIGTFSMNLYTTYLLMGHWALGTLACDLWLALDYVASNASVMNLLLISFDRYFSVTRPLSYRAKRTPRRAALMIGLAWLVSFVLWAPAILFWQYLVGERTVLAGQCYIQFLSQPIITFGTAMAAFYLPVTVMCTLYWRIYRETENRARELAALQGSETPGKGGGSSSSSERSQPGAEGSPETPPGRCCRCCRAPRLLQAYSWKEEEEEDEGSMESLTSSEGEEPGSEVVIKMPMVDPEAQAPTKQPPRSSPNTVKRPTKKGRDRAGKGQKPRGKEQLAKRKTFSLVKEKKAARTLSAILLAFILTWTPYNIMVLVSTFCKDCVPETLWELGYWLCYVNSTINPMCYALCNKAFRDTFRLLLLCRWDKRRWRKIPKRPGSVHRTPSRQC
# How it was run: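 Compounds tested as agonists at 11 concentrations in triplicate, with calcium traces captured over 3 minutes. Cells were HEK293 with stable human CHRM1 expression, plated overnight at 25K/well and loaded with calcium dye. Responses normalized to carbachol EC100 and fitted by four-parameter nonlinear regression.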
M4 FDSS PA [1] [%],EC50 [1] [nM],M1 FDSS PA [2] [%],EC50 [2] [nM],Emax [1] [%],Emax [2] [%],Compound
60,5,34,1330,,,"Fc1cncc(N2CC3(CC[C@@H](N4CCC(c5cc(F)ccc5OC5CCOCC5)CC4)C3)C2)c1 (single isomer, unassigned) [Example 10A, (R)-6-(4-(5-fluoro-2-((tetrahydro-2H-pyran-4-yl)oxy)phenyl)piperidin-1-yl)-2-(5-fluoropyridin-3-yl)-2-azaspiro[3.4]octane or (S)-6-(4-(5-fluoro-2-((tetrahydro-2H-pyran-4-yl)oxy)phenyl)piperidin-1-yl)-2-(5-fluoropyridin-3-yl)-2-azaspiro[3.4]octane]"
,< 0.4,,56,75,85,"c1ccc(C2CCN([C@@H]3CCC4(C3)CN(c3nnco3)C4)CC2)c(OC[C@H]2COCCO2)c1 [Example 1C, 2-((R)-6-(4-(2-(((R)-1,4-dioxan-2-yl)methoxy)phenyl)piperidin-1-yl)-2-azaspiro[3.4]octan-2-yl)-1,3,4-oxadiazole]"
49,1,46,29,,,"O=C1CCCN1CCOc1ccccc1C1CCN([C@@H]2CCC3(C2)CN(C(=O)C2(F)CC2)C3)CC1.O=CO (single isomer, unassigned) [Example 7P, (R)-1-(2-(2-(1-(2-(1-fluorocyclopropane-1-carbonyl)-2-azaspiro[3.4]octan-6-yl)piperidin-4-yl)phenoxy)ethyl)pyrrolidin-2-one formate salt or (S)-1-(2-(2-(1-(2-(1-fluorocyclopropane-1-carbonyl)-2-azaspiro[3.4]octan-6-yl)piperidin-4-yl)phenoxy)ethyl)pyrrolidin-2-one formate salt]"
49,26,31,569,,,"O=C(N1CC2(CC[C@@H](N3CCC(c4cc(F)ccc4C4CCOCC4)CC3)C2)C1)C1(F)CC1 (single isomer, unassigned) [Example 9L, (R)-(6-(4-(5-fluoro-2-(tetrahydro-2H-pyran-4-yl)phenyl)piperidin-1-yl)-2-azaspiro[3.4]octan-2-yl)(1-fluorocyclopropyl)methanone or (S)-(6-(4-(5-fluoro-2-(tetrahydro-2H-pyran-4-yl)phenyl)piperidin-1-yl)-2-azaspiro[3.4]octan-2-yl)(1-fluorocyclopropyl)methanone]"
,> 25000,,> 25000,2,0,"COc1ccccc1C1CCN([C@@H]2CCC3(C2)CN(c2cnc(C)nc2)C3)CC1 [Example 5E, (R)-6-(4-(2-methoxyphenyl)piperidin-1-yl)-2-(2-methylpyrimidin-5-yl)-2-azaspiro[3.4]octane]"
,> 25000,,> 25000,1,0,"Cc1coc(N2CC3(CC[C@@H](N4CCC(c5ccccc5OCC(C)(C)O)CC4)C3)C2)n1 [Example 3O, (R)-2-methyl-1-(2-(1-(2-(4-methyloxazol-2-yl)-2-azaspiro[3.4]octan-6-yl)piperidin-4-yl)phenoxy)propan-2-ol]"
1,241,3,2690,,,"O=C(N1CC2(CC[C@@H](N3CCC(c4cc(F)ccc4C4(O)CCOCC4)CC3)C2)C1)C1(F)CC1 (single isomer, unassigned) [Example 9J, (R)-(6-(4-(5-fluoro-2-(4-hydroxytetrahydro-2H-pyran-4-yl)phenyl)piperidin-1-yl)-2-azaspiro[3.4]octan-2-yl)(1-fluorocyclopropyl)methanone or (S)-(6-(4-(5-fluoro-2-(4-hydroxytetrahydro-2H-pyran-4-yl)phenyl)piperidin-1-yl)-2-azaspiro[3.4]octan-2-yl)(1-fluorocyclopropyl)methanone]"
17,15,23,92,,,"O=C(N1CC2(CC[C@@H](N3CCC(c4cc(F)ccc4C4(O)CCOCC4)CC3)C2)C1)C1(F)CC1 (single isomer, unassigned) [Example 9I, (R)-(6-(4-(5-fluoro-2-(4-hydroxytetrahydro-2H-pyran-4-yl)phenyl)piperidin-1-yl)-2-azaspiro[3.4]octan-2-yl)(1-fluorocyclopropyl)methanone or (S)-(6-(4-(5-fluoro-2-(4-hydroxytetrahydro-2H-pyran-4-yl)phenyl)piperidin-1-yl)-2-azaspiro[3.4]octan-2-yl)(1-fluorocyclopropyl)methanone]"
,1,,48,61,50,"COc1ccccc1C1CCN([C@@H]2CCC3(C2)CN(c2cnccn2)C3)CC1 [Example 5H, (R)-6-(4-(2-methoxyphenyl)piperidin-1-yl)-2-(pyrazin-2-yl)-2-azaspiro[3.4]octane]"
47,2,1,> 25000,,,"O=C(N1CC2(CC[C@@H](N3CCC(c4ccccc4OC4CC5(COC5)C4)CC3)C2)C1)C1(F)CC1 (single isomer, unassigned) [Example 11C, (R)-(6-(4-(2-((2-oxaspiro[3.3]heptan-6-yl)oxy)phenyl)piperidin-1-yl)-2-azaspiro[3.4]octan-2-yl)(1-fluorocyclopropyl)methanone or (S)-(6-(4-(2-((2-oxaspiro[3.3]heptan-6-yl)oxy)phenyl)piperidin-1-yl)-2-azaspiro[3.4]octan-2-yl)(1-fluorocyclopropyl)methanone]"
1,> 25000,0,> 25000,,,"FC(F)(F)Oc1ccccc1C1CCN([C@@H]2CCC3(C2)CN(c2nncs2)C3)CC1 (single isomer, unassigned) [Example 10N, (R)-2-(6-(4-(2-(trifluoromethoxy)phenyl)piperidin-1-yl)-2-azaspiro[3.4]octan-2-yl)-1,3,4-thiadiazole or (S)-2-(6-(4-(2-(trifluoromethoxy)phenyl)piperidin-1-yl)-2-azaspiro[3.4]octan-2-yl)-1,3,4-thiadiazole]"
,6,,3760,59,7,"COc1ccccc1C1CCN([C@@H]2CCC3(C2)CN(c2cncc(F)c2)C3)CC1 [Example 5F, (R)-2-(5-fluoropyridin-3-yl)-6-(4-(2-methoxyphenyl)piperidin-1-yl)-2-azaspiro[3.4]octane]"
45,38,9,> 25000,,,"O=C(N1CC2(CC[C@@H](N3CCC(c4cc(F)ccc4OC4CC5(COC5)C4)CC3)C2)C1)C1(F)CC1 (single isomer, unassigned) [Example 11A, (R)-(6-(4-(2-((2-oxaspiro[3.3]heptan-6-yl)oxy)-5-fluorophenyl)piperidin-1-yl)-2-azaspiro[3.4]octan-2-yl)(1-fluorocyclopropyl)methanone or (S)-(6-(4-(2-((2-oxaspiro[3.3]heptan-6-yl)oxy)-5-fluorophenyl)piperidin-1-yl)-2-azaspiro[3.4]octan-2-yl)(1-fluorocyclopropyl)methanone]"
,131,,2030,51,41,"COc1ccccc1C1CCN([C@@H]2CCC3(C2)CN(c2cc(Cl)nnc2Cl)C3)CC1 [Example 5R, (R)-2-(3,6-dichloropyridazin-4-yl)-6-(4-(2-methoxyphenyl)piperidin-1-yl)-2-azaspiro[3.4]octane]"

Compound,M4 FDSS PA [1] [%],EC50 [1] [nM],M1 FDSS PA [2] [%],EC50 [2] [nM],Emax [1] [%],Emax [2] [%]
"COC(C)(C)CCOc1ccccc1C1CCN([C@@H]2CCC3(C2)CN(C(=O)C2(F)CC2)C3)CC1 (single isomer, unassigned) [Example 7FF, (R)-(1-fluorocyclopropyl)(6-(4-(2-(3-methoxy-3-methylbutoxy)phenyl)piperidin-1-yl)-2-azaspiro[3.4]octan-2-yl)methanone or (S)-(1-fluorocyclopropyl)(6-(4-(2-(3-methoxy-3-methylbutoxy)phenyl)piperidin-1-yl)-2-azaspiro[3.4]octan-2-yl)methanone]",38,5,7,182,,
